Experimental data: patent US20250352524A1, “PREVENTION OF METASTATIC OUTGROWTH USING TEAD INHIBITORS” (Georgetown University, priority 2024, published 2025)

What was measured:
DCIS cells = experiment: Real Time Cell Analysis, proliferation of DCIS cells; format: cell-based, human; conditions: VT107 at varying concentrations, cell index
Protocol: To further examine the effect of TEAD inhibition on the myeloid compartment of the lung, a human breast cancer cell line MCFDCIS (DCIS) that metastasizes to the lungs when a small population of cells (DCISA4) expresses an isoform of the transcription coactivator amplified in breast cancer 1 (Sharif et al., 2021), was used. DCIS:DCISA4 cells were injected into the mammary fat pad of NOD/SCID mice. Mice were treated daily with VT107. Tumors were surgically removed at week 4 and lungs were monitored for metastases for another 4 weeks without receiving additional treatment (FIG. 13, Panel B). Mouse body weights were measured weekly throughout the course of treatment (FIG. 13, Panel C). […] All mice in the vehicle treated group developed lung metastases as previously reported (Sharif et al., 2021). […] RNA was extracted from lung tissues to further examine the host stroma affected by VT107. RNA sequencing reads from the lungs were aligned to the mouse transcriptome to shed light on the host tissue changes in response to treatment in the presence of seeded cancer cells. […]
Cell analysis was done using E-plates from xCELLigence, (Agilent, #5469830001) according to the manufacturer's protocol. […] Cell index was measured by changes in electric impedance at 15 min intervals. […]

peritoneal macrophages = experiment: Gene expression and pathway analysis of peritoneal macrophages treated in vitro; format: cell-based, mouse
Source text: (§1) To investigate whether the effect of iTEAD treatment on macrophages can enhance their crosstalk with T-cells in the lung microenvironment, peritoneal macrophages+/−iTEAD were first isolated and characterized as a model of resident macrophages for ex vivo experiments (FIG. 14, Panel A). It was observed that treatment with VT107 decreased gene expression of M2-like and fibrosis regulators, Aldh1a1 and Cc117 (Chen et al., 2020), as well as TEAD4 and its downstream target gene Ankrd1. […] The iTEAD pretreated peritoneal macrophages and untreated T-cells isolated from the spleen of tumor naïve mice (FIG. 14, Panel A) were then mixed for 5 hours before collecting the conditioned media for analysis. […] Next, these immune cell mixes were added to 4T1 spheres that were embedded into matrix. […] This effect was reversed by an IL12 neutralizing antibody. No change in cleaved caspase-3 in 4T1 cells in the presence of VT107-treated T-cells or macrophages alone, was detected at 24 hours (FIG. 14, Panels C and D). 4T1 cells were then plated and allowed to attach on electrode-coated arrays to monitor cancer cell viability before the addition of macrophages+/−iTEAD and T-cells. […] This reversal of T-cell cytotoxicity by IL12 antibodies was not observed in VT107-treated T-cells in the absence of macrophages (FIG. 15, Panel E) indicating a critical role for IL12 in the crosstalk between macrophages and T-cells.
The total RNA from tissue or cell lines was extracted using RNeasy Mini Kit (Qiagen, #74104) according to the manufacturer's instructions. Total RNA integrity was assessed with the Agilent 2100 Bioanalyzer. The library preparation and next-generation sequencing (NGS) were performed at Novogene Corporation Inc. (Sacramento, CA, USA). At least triplicate samples per experimental condition were analyzed, raw sequence reads (150 bp paired end, […] average reads/sample) were aligned to the human or mouse transcriptome using STAR, and aligned reads translated to expression counts via featurecounts, followed by a standard edgeR (RRID:SCR_012802) pipeline to identify DEGs under specific conditions. Ingenuity pathway analysis (IPA, RRID:SCR_008653) was undertaken using a list of all differentially expressed genes with a cutoff of p-value less than 0.05 to identify signaling pathways and upstream regulators.

[1] = tested on: peritoneal macrophages and T-cells; experiment: Cytokine array, pretreated peritoneal macrophages mixed with T-cells; format: cell-based, mouse
Source text: as §1
Cells were grown in their recommended cell culture media and treated with […] VT107 for 24 or 72 hours. Conditioned media was collected and passed through a 0.2 micron PES filter then analyzed on a RayBio® Mouse Cytokine Array (#AAM-TCR-1) according to the manufacture's protocol. The array includes two spots for each cytokine. The luminescence signal was normalized to the positive control on each membrane, then to the vehicle treatment signal of each cytokine.

T-cells = experiment: Degranulation assay of T-cells co-cultured with 4T1 cells; format: cell-based, BALB/c mice
Protocol: The hippo pathway has been implicated in T-cell development and function (Du et al., 2014; Ueda et al., 2012). For example, YAP expression is essential for tumor immune suppression by Treg cells that attenuates CD8 T-cell immunity (Geng et al., 2017; Ni et al., 2018; Lebid et al., 2020). […] To investigate whether VT107 directly affected T-cells, T-cells treated with VT107 were co-cultured with 4T1 cells in 2D for 72 hours. […] To further confirm T-cell activation upon TEAD activity reduction, we used Jurkat cells, a CD4 positive human lymphoma cell line (Schneider et al., 1977). […] However, here we show the specific effect of TEAD reduction on granzyme gene expression and degranulation that result in the killing of cancer cells.
T-cells were isolated from the spleens of naïve BALB/c as described above and treated in vitro with DMSO control or VT107 for 24 hours. T-cells were then co-cultured with 4T1 cells with the same treatment conditions. After 72 hours, all cells were collected and subdued to flow cytometry using anti-CD45-AF700 (Biolegend, 103128), anti-CD8-BV785 (Biolegend, 100750), anti-CD4-Pacific Blue (Biolegend, 116007), anti-CD107a-PE/Cy7 (Biolegend, 121620), and Helix NP Blue (Biolegend, 425305). Analysis was performed on the BD FACSymphony Δ3 flow cytometer analyzer, and results were analyzed using FCS Express 7 Research (De Novo Software).

[2] = 1 μM VT107 for 24 hours, pathway analysis
[3] = macrophages pretreated 24 hrs with 1 μM VT107, mixed with untreated T-cells 5 hours
[4] = treated overnight with 1 μM VT107

Substance: VT107
- proliferation of DCIS / breast cancer cells in vitro (DCIS cells): no significant change
- proliferation of DCIS / breast cancer cells in vitro (DCIS cells; listed as iTEAD): no effect
- cell cycle related pathways (peritoneal macrophages; [2]): upregulated
- disease-related chronic inflammation pathways (peritoneal macrophages; [2]): downregulation
- Pvalb gene expression (peritoneal macrophages; 1 μM VT107 for 72 hours): top upregulated gene
- gene expression of Aldh1a1, Cc117, TEAD4 and Ankrd1 (peritoneal macrophages; 1 μM VT107 for 72 hours): decreased
- IL6 level in the cell mix [1, 3]: significantly increased
- IL12 level in the cell mix [1, 3]: significantly increased
- IL4 in T-cells [1, 4]: slightly increased
- IL12 or IL6 levels in macrophages or T-cells alone [1, 4]: No significant change
- T-cell degranulation marker CD107a (T-cells; 1 μM VT107, co-culture with 4T1 cells 72 hours, flow cytometry): significantly increased
- IFNγ levels (T-cells; T-cells treated with VT107, co-cultured with 4T1 cells in 2D for 72 hours): no change
